How the values were obtained:
[1] = molecular target: T1, purified murine COX-2 (Mus musculus, UniProt Q05769); test: Inhibition of mCOX-2 dependent oxygenation of 2-AG and AA in vitro; assay type: biochemical; conditions: read-out: 2-AG IC50 (dash)
T1 sequence (Q05769 18-604): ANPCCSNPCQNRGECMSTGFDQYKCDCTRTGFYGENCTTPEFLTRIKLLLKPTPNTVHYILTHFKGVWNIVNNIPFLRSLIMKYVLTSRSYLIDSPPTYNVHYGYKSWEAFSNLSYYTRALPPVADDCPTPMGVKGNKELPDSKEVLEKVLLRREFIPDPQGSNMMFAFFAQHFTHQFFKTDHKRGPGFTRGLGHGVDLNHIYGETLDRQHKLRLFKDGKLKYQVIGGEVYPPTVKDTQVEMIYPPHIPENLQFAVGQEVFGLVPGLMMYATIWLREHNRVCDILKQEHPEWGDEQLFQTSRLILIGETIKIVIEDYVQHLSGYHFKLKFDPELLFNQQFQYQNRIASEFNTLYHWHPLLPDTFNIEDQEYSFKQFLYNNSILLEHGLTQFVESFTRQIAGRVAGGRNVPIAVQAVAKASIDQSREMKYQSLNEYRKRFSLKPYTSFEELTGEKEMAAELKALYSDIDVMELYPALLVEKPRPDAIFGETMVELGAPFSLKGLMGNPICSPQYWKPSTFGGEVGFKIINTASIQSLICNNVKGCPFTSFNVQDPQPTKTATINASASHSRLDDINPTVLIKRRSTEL

[2] = tested on: COX-2 dependent oxygenation in RAW 264.7 macrophages; test: Oxygenation of 2-AG and AA in LPS/interferon γ stimulated RAW 264.7 macrophages; assay type: cell-based; conditions: Mus musculus, RAW264.7, read-out: AA inhibition in RAW 264.7 cells

inhibition at 10 µM [1] [%] | SMILES | inhibition at 50 µM [2] [%]
< 50 | COc1ccc2cc(C(C)(C)C(=O)O)ccc2c1 [4b] | 
< 50 | CC(C)Cc1ccc(C(C)(C)C(=O)O)cc1 [4c] | 
< 50 | CC(C)Cc1ccc(C2(C(=O)O)CC2)cc1 [5c] | 
 | C[C@@H](C(=O)O)c1ccc(-c2ccccc2)c(F)c1 [7a, (R)-flurbiprofen] | 0
